Laboratory results: patent publication US20220056019A1, “FARNESOID X RECEPTOR AGONISTS AND USES THEREOF” (Metacrine, Inc., priority 2018, published 2022)
pEC50: −log10 of the molar value.

Biological target: T1, hFXR (Homo sapiens, UniProt Q96RI1)
T1 construct: expressed in transfected cells; host or cells: CV-1 cells
T1 sequence (Q96RI1 1-486): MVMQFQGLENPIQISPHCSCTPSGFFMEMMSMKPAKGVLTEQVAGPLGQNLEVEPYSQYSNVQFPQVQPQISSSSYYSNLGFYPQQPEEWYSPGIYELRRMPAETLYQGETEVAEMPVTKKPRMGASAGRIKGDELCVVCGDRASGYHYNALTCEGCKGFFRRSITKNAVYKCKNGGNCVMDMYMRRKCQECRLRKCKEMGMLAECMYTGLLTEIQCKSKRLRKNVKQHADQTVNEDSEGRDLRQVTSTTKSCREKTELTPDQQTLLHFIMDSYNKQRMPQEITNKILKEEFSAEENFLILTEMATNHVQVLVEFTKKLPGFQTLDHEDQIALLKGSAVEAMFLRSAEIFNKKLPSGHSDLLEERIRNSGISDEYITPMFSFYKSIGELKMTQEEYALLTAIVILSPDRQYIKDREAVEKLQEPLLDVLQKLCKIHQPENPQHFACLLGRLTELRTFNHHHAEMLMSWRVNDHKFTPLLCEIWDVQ
T1 sequence (P19793 1-462 partner): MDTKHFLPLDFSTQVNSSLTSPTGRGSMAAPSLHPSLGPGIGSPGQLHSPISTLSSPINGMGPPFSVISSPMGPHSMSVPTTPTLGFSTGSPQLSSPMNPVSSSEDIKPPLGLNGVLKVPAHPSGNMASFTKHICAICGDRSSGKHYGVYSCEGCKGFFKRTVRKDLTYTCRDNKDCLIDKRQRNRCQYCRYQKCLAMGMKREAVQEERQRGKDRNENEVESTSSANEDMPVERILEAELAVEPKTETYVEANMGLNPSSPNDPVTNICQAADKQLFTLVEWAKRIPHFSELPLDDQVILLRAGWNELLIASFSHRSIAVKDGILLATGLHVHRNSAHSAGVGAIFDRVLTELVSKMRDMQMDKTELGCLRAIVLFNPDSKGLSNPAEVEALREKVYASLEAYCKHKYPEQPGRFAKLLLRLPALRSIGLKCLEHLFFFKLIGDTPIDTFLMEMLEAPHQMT
Assay: In Vitro FXR Assay (TK): TK-ECRE-luc reporter in transfected CV-1 cells
Format: cell-based
Details: 18 hrs incubation, luminescence
Summary of the method: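 Luciferase read-out from lysed CV-1 cells carrying transfected hFXR, hRXR, TK-ECRE-luc and pCMX-YFP. Test compounds, DMSO serial dilutions, were incubated with the cells for 18 h before lysis. Cells grew in charcoal-stripped serum medium.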

| SMILES | pEC50 |
| --- | --- |
| COc1ccc([C@H]2CC[C@H](CN(c3cc(-n4cnc(C5CC5)n4)ccn3)C(=O)[C@H]3CC[C@H](OC(=O)N4CC(O)C4)CC3)CC2)cc1C [Compound 2.39, trans-4-((4-(3-Cyclopropyl-1H-1,2,4-triazol-1-yl)pyridin-2-yl)((trans-4-(4-methoxy-3-methylphenyl)cyclohexyl)methyl)carbamoyl)cyclohexyl 3-hydroxyazetidine-1-carboxylate] | ≥ 7.30 |
| COc1ccc(C23CCC(CN(c4cc(-c5cnn(C(C)C)c5)ccn4)C(=O)[C@H]4CC[C@H](OC(=O)NCCCCO)CC4)(CC2)CC3)cc1C [Compound 4.50, 4-((4-(1-Isopropyl-1H-pyrazol-4-yl)pyridin-2-yl) ((4-(4-methoxy-3-methylphenyl)bicyclo [2.2.2]octan-1-yl)methyl)carbamoyl)cyclohexyl(4-hydroxybutyl)trans-carbamate] | ≥ 7.30 |
| COc1ccc(C23CCC(CN(c4cc(-c5cc(C6CC6)on5)ccn4)C(=O)[C@H]4CC[C@H](OC(=O)N5CC(O)C5)CC4)(CC2)CC3)cc1C [Compound 4.26, 4-((4-(5-Cyclopropylisoxazol-3-yl)pyridin-2-yl)((4-(4-methoxy-3-methylphenyl)bicyclo[2.2.2]octan-1-yl)methyl)carbamoyl) cyclohexyl 3-hydroxyazetidine-trans-1-carboxylate] | ≥ 7.30 |
| COCCOC(=O)N[C@H]1CC[C@H](C(=O)N(C[C@H]2CC[C@H](c3ccc(OC)c(C)c3)CC2)c2cccc(-c3cnn(C(C)C)c3)c2)CC1 [Compound 6.04, 2-Methoxyethyl (trans-4-((3-(1-isopropyl-1H-pyrazol-4-yl)phenyl)((trans-4-(4-methoxy-3-methylphenyl)cyclohexyl)meth-yl)carbamoyl)cyclohexyl)carbamate] | ≥ 7.30 |
| COc1ccc([C@H]2CC[C@H](CN(c3cccc(-c4cnn(C(C)C)c4)c3)C(=O)[C@H]3CC[C@H](NC(=O)COCCCO)CC3)CC2)cc1C [Compound 13, trans-4-(2-(3-Hydroxypropoxy)acetamido)-N-(3-(1-isopropyl-1H-pyrazol-4-yl)phenyl)-N-((trans-4-(4-methoxy-3-methylphenyl)cyclohexyl)methyl)cyclohexanecarboxamide] | ≥ 7.30 |
| CS(=O)(=O)c1ccc([C@H]2CC[C@H](CN(c3cccc(-c4cnc(C5CC5)s4)c3)C(=O)[C@H]3CC[C@H](OC(=O)N4CC(O)C4)CC3)CC2)cc1 [Compound 5.15, trans-4-((3-(2-Cyclopropylthiazol-5-yl)phenyl)((trans-4-(4-(methylsulfonyl)phenyl)cyclohexyl)methyl)carbamoyl)cyclohexyl 3-hydroxyazetidine-1-carboxylate] | 6.00 to 7.30 |
| COc1ccc(C23CCC(CN(c4cc(-c5cnn(C6CCCC6)c5)ccn4)C(=O)[C@H]4CC[C@H](OC(=O)N5CC(O)C5)CC4)(CC2)CC3)cc1C [Compound 23.07, 4-((4-(1-Cyclopentyl-1H-pyrazol-4-yl)pyridin-2-yl)((4-(4-methoxy-3-methylphenyl)bicyclo[2.2.2]oc-tan-1-yl)methyl)carbamoyl)(trans-cyclohexyl) 3-hydroxy-azetidine-1-carboxylate] | ≥ 7.30 |
| COc1ccc(C23CCC(CN(c4cc(-c5cnn(C(C)C)c5)ccn4)C(=O)[C@H]4CC[C@H](OC(=O)N5CCN(C)CC5)CC4)(CC2)CC3)cc1C [Compound 4.15, 4-((4-(1-Isopropyl-1H-pyrazol-4-yl)pyridin-2-yl)((4-(4-methoxy-3-methylphenyl)bicyclo [2.2.2]octan-1-yl)methyl)carbamoyl)cyclohexyl 4-methylpiperazine-trans-1-carboxylate] | ≥ 7.30 |
| COCCNC(=O)O[C@H]1CC[C@H](C(=O)N(CC23CCC(c4ccc(OC)c(C)c4)(CC2)CC3)c2cc(-c3cnn(C(C)C)c3)ccn2)CC1 [Compound 4.49, 4-((4-(1-Isopropyl-1H-pyrazol-4-yl)pyridin-2-yl) ((4-(4-methoxy-3-methylphenyl)bicyclo [2.2.2]octan-1-yl)methyl)carbamoyl)cyclohexyl(2-methoxyethyl)trans-carbamate] | ≥ 7.30 |
| COc1ccc([C@H]2CC[C@H](CN(c3cc(-c4coc(C(C)C)n4)ccn3)C(=O)[C@H]3CC[C@H](OC(=O)NC(C)C)CC3)CC2)cc1C [Compound 2.44, trans-4-((4-(2-Isopropyloxazol-4-yl)pyridin-2-yl)(((trans)-4-(4-methoxy-3-methylphenyl)cyclohexyl)methyl)carbamoyl) cyclohexyl isopropylcarbamate] | ≥ 7.30 |
| COc1ccc(C23CCC(CN(c4cc(-c5coc(C(C)C)n5)ccn4)C(=O)[C@H]4CC[C@H](OC(=O)N5CC(O)C5)CC4)(CC2)CC3)cc1C [Compound 4.23, 4-((4-(2-Isopropyloxazol-4-yl)pyridin-2-yl)((4-(4-methoxy-3-methylphenyl)bicyclo[2.2.2]octan-1-yl)methyl)carbamoyl) cyclohexyl 3-hydroxyazetidine-trans-1-carboxylate] | ≥ 7.30 |
| CCOC1CN(C(=O)O[C@H]2CC[C@H](C(=O)N(CC34CCC(c5ccc(OC)c(C)c5)(CC3)CC4)c3cc(-c4cnn(C(C)C)c4)ccn3)CC2)C1 [Compound 4.48, 4-((4-(1-Isopropyl-1H-pyrazol-4-yl)pyridin-2-yl) ((4-(4-methoxy-3-methylphenyl)bicyclo [2.2.2]octan-1-yl)methyl)carbamoyl)(trans-cyclohexyl) 3-ethoxyazetidine-1-carboxylate] | ≥ 7.30 |
| COc1ccc(C23CCC(CN(c4cc(-c5coc(C(C)C)n5)ccn4)C(=O)[C@H]4CC[C@H](OC(=O)NCCC(C)(C)O)CC4)(CC2)CC3)cc1C [Compound 23.06, 4-((4-(2-Isopropyloxazol-4-yl)pyridin-2-yl)((4-(4-methoxy-3-methylphenyl)bicyclo[2.2.2]octan-1-yl)methyl)carbamoyl)(trans-cyclohexyl)(3-hydroxy-3-methylbutyl)carbamate] | ≥ 7.30 |
| COc1ccc(C23CCC(CN(c4cc(-c5cnc(C(C)C)s5)ccn4)C(=O)[C@H]4CC[C@H](OC(=O)N5CC(CO)C5)CC4)(CC2)CC3)cc1C [Compound 4.29, 4-((4-(2-Isopropylthiazol-5-yl)pyridin-2-yl)((4-(4-methoxy-3-methylphenyl)bicyclo[2.2.2]octan-1-yl)methyl)carbamoyl)(trans-cyclohexyl) 3-(hydroxymethyl)azetidine-1-carboxylate] | ≥ 7.30 |
| COc1ccc([C@H]2CC[C@H](CN(c3cc(-c4cnc(C(C)C)s4)ccn3)C(=O)[C@H]3CC[C@H](OC(=O)NC4COC4)CC3)CC2)cc1C [Compound 2.55, trans-4-((4-(2-Isopropylthiazol-5-yl)pyridin-2-yl)(((trans)-4-(4-methoxy-3-methylphenyl)cyclohexyl)methyl)carbamoyl)cyclohexyl oxetan-3-ylcarbamate] | ≥ 7.30 |
| COc1ncc([C@H]2CC[C@H](CN(c3cc(-c4cnn(C(C)C)c4)ccn3)C(=O)[C@H]3CC[C@H](OC(=O)N4CC(N(C)C)C4)CC3)CC2)cc1Cl [Compound 1.08, trans-4-((((trans)-4-(5-Chloro-6-methoxypyridin-3-yl)cyclohexyl)methyl)(4-(1-isopropyl-1H-pyrazol-4-yl)pyridin-2-yl)carbamoyl)cyclohexyl 3-(dimethylamino)azetidine-1-carboxylate] | ≥ 7.30 |
| COc1ccc(C23CCC(CN(c4cc(-c5coc(C(C)C)n5)ccn4)C(=O)[C@H]4CC[C@H](OC(=O)N5CC(OCCO)C5)CC4)(CC2)CC3)cc1C [Compound 23.05, 4-((4-(2-Isopropyloxazol-4-yl)2-yl)((4-(4-methoxy-3-methylphenyl)bicyclo[2.2.2]octan-1-yl)methyl)carbamoyl)(trans-cyclohexyl) 3-(2-hydroxyethoxy)azetidine-1-carboxylatepyridin-] | ≥ 7.30 |
| COc1ccc(C23CCC(CN(c4ccc(F)c(-c5cnn(C(C)C)c5)c4)C(=O)[C@H]4CC[C@H](OC(=O)N5CC(C#N)C5)CC4)(CC2)CC3)cc1C [Compound 25.11, 4-((4-Fluoro-3-(1-isopropyl-1H-pyrazol-4-yl)phenyl)((4-(4-methoxy-3-methylphenyl)bicyclo[2.2.2]octan-1-yl)methyl)carbamoyl)cyclohexyl trans-3-cyanoazetidine-1-carboxylate] | ≥ 7.30 |
| COc1ccc([C@H]2CC[C@H](CN(c3cccc(-c4cnn(C(C)C)c4)c3)C(=O)[C@H]3CC[C@H](NC(=O)COCCO)CC3)CC2)cc1C [Compound 13.01, trans-4-(2-(2-Hydroxyethoxy)acetamido)-N-(3-(1-isopropyl-1H-pyrazol-4-yl)phenyl)-N-((trans-4-(4-methoxy-3-methylphenyl)cyclohexyl)meth-yl)cyclohexanecarboxamide] | 6.00 to 7.30 |
